Measured values: ChEMBL document CHEMBL5325509, “Pyrrolidinedione-thiazolidinone hybrid molecules with potent cytotoxic effect in squamous cell carcinoma SCC-15 cells” (Bioorg Med Chem, 2023)
The source made the active and inactive calls. The rule behind the calls is not given here.

How the values were obtained:
[1] = Cytotoxicity against mouse BALB/3T3 cells assessed reduction in cellular metabolic activity incubated for 24 to 72 hrs by MTT assay; assay type: toxicity, cell-based
[2] = Upregulation of Caspase-3 activity in human SCC-15 cells at 100 uM measured after 24 hrs in presence of Ac-DEVD-AMC by fluorescence microplate reader analysis; assay type: functional
[3] = Downregulation of PCNA expression in PPARgamma-silenced human SCC-15 cells at 1 uM incubated for 48 hrs Western blot analysis relative to control; assay type: functional
[4] = Upregulation of Caspase-3 activity in human SCC-15 cells at 50 uM measured after 48 hrs in presence of Ac-DEVD-AMC by fluorescence microplate reader analysis; assay type: functional
[5] = Upregulation of PPARgamma expression in PPARgamma-silenced human SCC-15 cells at 1 uM incubated for 48 hrs Western blot analysis relative to control; assay type: functional
SCC-15 [6] = assay: Cytotoxicity against human SCC-15 cells assessed as decrease in cellular metabolic activity at 100 uM incubated for 24 hrs by resazurin reduction assay relative to control; assay type: functional; design: scale not given: the % may be the effect or the level left
SCC-15 [7] = assay: Induction of intracellular ROS generation in human SCC-15 cells at 0.001 to 100 uM by DCFH-DA staining based immunofluorescence analysis; assay type: functional, cell-based; conditions: dose 0.001-100 µM, time 24-48 hrs, TDE = time-dependent effect
[8] = Downregulation of Ki67 expression in PPARgamma-silenced human SCC-15 cells at 1 uM incubated for 48 hrs Western blot analysis relative to siRNA control; assay type: functional
SCC-15 [9] = assay: Cytotoxicity against human SCC-15 cells assessed as LDH release at 1 uM incubated for 48 hrs relative to control; assay type: functional
[10] = Downregulation of PPARgamma mRNA expression in human SCC-15 cells at 1 uM measured after 24 hrs by RT-PCR analysis (reference value: 79.68 %); assay type: functional
[11] = Upregulation of NRFL2 mRNA expression in PPARgamma knockdown human SCC-15 cells at 1 uM measured after 24 hrs by RT-PCR analysis; assay type: functional
[12] = Upregulation of Caspase-3 activity in human SCC-15 cells at 50 uM measured after 24 hrs in presence of Ac-DEVD-AMC by fluorescence microplate reader analysis; assay type: functional
[13] = Downregulation of PCNA expression in PPARgamma-silenced human SCC-15 cells at 1 uM incubated for 48 hrs Western blot analysis relative to siRNA control; assay type: functional
SCC-15 [14] = assay: Cytotoxicity against human SCC-15 cells assessed as decrease in cellular metabolic activity at 10 to 100 uM incubated for 48 hrs by resazurin reduction assay relative to control; assay type: functional; design: scale not given: the % may be the effect or the level left; conditions: dose 10-100 µM
[15] = Downregulation of AHR mRNA expression in human SCC-15 cells at 1 uM measured after 24 hrs by RT-PCR analysis (reference value: 17.30 %); assay type: functional
SCC-15 [16] = assay: Cytotoxicity against human SCC-15 cells assessed as LDH release at 50 nM incubated for 48 hrs relative to control; assay type: functional
SCC-15 [17] = assay: Cytotoxicity against human SCC-15 cells assessed as decrease in cellular metabolic activity incubated for 48 hrs by resazurin reduction assay; assay type: functional, cell-based; conditions: SCC-15, 48 h
[18] = Upregulation of Caspase-3 activity in human SCC-15 cells at 100 uM measured after 48 hrs in presence of Ac-DEVD-AMC by fluorescence microplate reader analysis; assay type: functional
SCC-15 [19] = assay: Cytotoxicity against human SCC-15 cells assessed as LDH release at 100 uM incubated for 48 hrs relative to control; assay type: functional
SCC-15 [20] = assay: Induction of intracellular ROS generation in human SCC-15 cells at 0.001 to 1 uM incubated for 24 to 48 hrs by DCFH-DA staining based immunofluorescence analysis; assay type: functional, cell-based; conditions: dose 0.001-1 µM, time 24-48 hrs
[21] = Cytotoxicity against mouse BALB/3T3 cells assessed reduction in cellular metabolic activity incubated for 72 hrs by MTT assay; assay type: toxicity, cell-based
HaCaT = assay: Cytotoxicity against human HaCaT cells assessed reduction in cellular metabolic activity at 0.1 to 100 uM incubated for 24 to 72 hrs by MTT assay; assay type: toxicity, cell-based; conditions: dose lower 0.1 µM, time lower 24 hrs, dose upper 100 µM, time upper 72 hrs
SCC-15 [22] = assay: Induction of intracellular ROS generation in human SCC-15 cells at 50 to 100 uM incubated for 48 hrs by DCFH-DA staining based immunofluorescence analysis; assay type: functional; conditions: dose 50-100 µM
SCC-15 [23] = assay: Cytotoxicity against human SCC-15 cells assessed as LDH release incubated for 24 hrs; assay type: functional, cell-based; conditions: SCC-15, 24 h
[24] = Cytotoxicity against human HaCaT cells assessed reduction in cellular metabolic activity incubated for 72 hrs by MTT assay; assay type: toxicity, cell-based
[25] = Downregulation of PPARgamma expression in PPARgamma-silenced human SCC-15 cells at 1 uM incubated for 48 hrs Western blot analysis relative to SiRNA control; assay type: functional
SCC-15 [26] = assay: Induction of intracellular ROS generation in human SCC-15 cells incubated for 24 to 48 hrs by DCFH-DA staining based immunofluorescence analysis; assay type: functional, cell-based; conditions: dose 0.001-100 µM, time 24-48 hrs
SCC-15 [27] = assay: Cytotoxicity against human SCC-15 cells assessed as decrease in cellular metabolic activity incubated for 24 hrs by resazurin reduction assay; assay type: functional, cell-based; conditions: SCC-15, 24 h
BALB/3T3 = assay: Cytotoxicity against mouse BALB/3T3 cells assessed reduction in cellular metabolic activity at 0.1 to 100 uM incubated for 24 to 72 hrs by MTT assay; assay type: toxicity, cell-based; conditions: balb/3t3, 100 µM, dose lower 0.1 µM, time lower 24 hrs, dose upper 100 µM, time upper 72 hrs
SCC-15 [28] = assay: Cytotoxicity against human SCC-15 cells assessed as LDH release incubated for 48 hrs; assay type: functional, cell-based; conditions: SCC-15, 48 h
[29] = Downregulation of NRFL2 mRNA expression in PPARgamma-silenced human SCC-15 cells at 1 uM measured after 24 hrs by RT-PCR analysis; assay type: functional
[30] = Downregulation of Ki67 expression in PPARgamma-silenced human SCC-15 cells at 1 uM incubated for 48 hrs Western blot analysis relative to control; assay type: functional
[31] = Downregulation of AHR expression in PPARgamma-silenced human SCC-15 cells at 1 uM incubated for 48 hrs Western blot analysis relative to SiRNA control; assay type: functional
SCC-15 [32] = assay: Cytotoxicity against human SCC-15 cells assessed as LDH release at 50 uM incubated for 48 hrs relative to control; assay type: functional
[33] = Downregulation of NRFL2 mRNA expression in human SCC-15 cells at 1 uM measured after 24 hrs by RT-PCR analysis (reference value: 18.36 %); assay type: functional
[34] = Downregulation of PPARgamma mRNA expression in PPARgamma-silenced human SCC-15 cells at 1 uM measured after 24 hrs by RT-PCR analysis; assay type: functional
[35] = Downregulation of PPARgamma expression in PPARgamma-silenced human SCC-15 cells at 1 uM incubated for 48 hrs Western blot analysis relative to control; assay type: functional
SCC-15 [36] = assay: Cytotoxicity against human SCC-15 cells assessed as LDH release at 10 uM incubated for 48 hrs relative to control; assay type: functional
[37] = Downregulation of AHR mRNA expression in PPARgamma-silenced human SCC-15 cells at 1 uM measured after 24 hrs by RT-PCR analysis; assay type: functional
[38] = Cytotoxicity against human HaCaT cells assessed reduction in cellular metabolic activity incubated for 24 to 72 hrs by MTT assay; assay type: toxicity, cell-based
Colon carcinoma cell = assay: Cytotoxicity against human Colon carcinoma cell assessed as inhibition of cell growth measured at 72 hrs; assay type: functional, cell-based
SCC-15 [39] = assay: Induction of intracellular ROS generation in human SCC-15 cells at 0.001 to 10 uM incubated for 48 hrs by DCFH-DA staining based immunofluorescence analysis; assay type: functional; conditions: dose 0.001-10 µM
SCC-15 [40] = assay: Induction of intracellular ROS generation in human SCC-15 cells at 50 to 100 uM incubated for 24 hrs by DCFH-DA staining based immunofluorescence analysis; assay type: functional; conditions: dose 50-100 µM
[41] = Upregulation of PPARgamma expression in PPARgamma-silenced human SCC-15 cells at 1 uM incubated for 48 hrs Western blot analysis relative to SiRNA control; assay type: functional
SCC-15 [42] = assay: Cytotoxicity against human SCC-15 cells assessed as LDH release at 1 to 100 uM incubated for 24 hrs relative to control; assay type: functional; conditions: dose 1-100 µM
Leukemic tumor cell line = assay: Cytotoxicity against human Leukemic tumor cell line assessed as inhibition of cell growth measured at 72 hrs; assay type: functional, cell-based
Glioblastoma cell line = assay: Cytotoxicity against human Glioblastoma cell line assessed as inhibition of cell growth measured at 72 hrs; assay type: functional, cell-based
Lung cancer cell line = assay: Cytotoxicity against human Lung cancer cell line assessed as inhibition of cell growth measured at 72 hrs; assay type: functional, cell-based
SCC-15 [43] = assay: Cytotoxicity against human SCC-15 cells assessed as LDH release at 1 to 100 uM incubated for 48 hrs relative to control; assay type: functional; conditions: dose 1-100 µM
[44] = Upregulation of AHR expression in PPARgamma-silenced human SCC-15 cells at 1 uM incubated for 48 hrs Western blot analysis relative to control; assay type: functional
Breast carcinoma cell = assay: Cytotoxicity against human Breast carcinoma cell assessed as inhibition of cell growth measured at 72 hrs; assay type: functional, cell-based
SCC-15 [45] = assay: Induction of intracellular ROS generation in human SCC-15 cells at 0.001 to 10 uM incubated for 24 hrs by DCFH-DA staining based immunofluorescence analysis; assay type: functional, cell-based; conditions: dose 0.001-10 µM
[46] = Cytotoxicity against human Cervical carcinoma cell assessed as inhibition of cell growth measured at 72 hrs; assay type: functional, cell-based
SCC-15 [47] = assay: Induction of intracellular ROS generation in human SCC-15 cells at 10 to 100 uM incubated for 48 hrs by DCFH-DA staining based immunofluorescence analysis; assay type: functional; conditions: dose 10-100 µM

Row | Structure (SMILES) | IC50 [1] [µM] | Activity [2] [%] | Activity [5] [%] | Activity (SCC-15 [6]) [%] | Activity (SCC-15 [7]) | Activity [8] [%] | Activity [11] [%] | Activity [12] [%] | Activity [13] [%] | Activity (SCC-15 [14]) [%] | IC50 (SCC-15 [17]) [µM] | Activity [18] [%] | Activity (HaCaT) | EC50 (SCC-15 [23]) [µM] | Activity (SCC-15 [26]) | IC50 (SCC-15 [27]) [µM] | Activity (BALB/3T3) | EC50 (SCC-15 [28]) [µM] | Activity [29] [%] | Activity [30] [%] | further results
1 | O=C1CC(N2C(=O)/C(=C/C(Cl)=C/c3ccc([N+](=O)[O-])cc3)SC2=S)C(=O)N1c1ccc(Br)cc1 (centres undefined) | > 100 | 121.15 | 11.23 | 27.07 | Tde | 39.67 | 17.1 | 42.87 | 24.94 | 24.52 | 39.9 | 57.04 | Non-Toxic | 15.4 | Dose-Dependent Effect | > 100 | Non-Toxic | 16.9 | 26.91 | 17 | Activity [3]: 12.74%; Activity [4]: 21.08%; Activity (SCC-15 [9]): 1.2%; Activity [10]: 12.29%; Activity [15]: 11.84%; Activity (SCC-15 [16]): 2%; Activity (SCC-15 [19]): 328%; Activity (SCC-15 [20]): inactive; IC50 at 72 h [21]: 85.2 µM; Activity (SCC-15 [22]): 12%; IC50 at 72 h [24]: 83.6 µM; Activity [25]: 18.45%; Activity [31]: 32.23%; Activity (SCC-15 [32]): 178.4%; Activity [33]: 8.55%; Activity [34]: 73.1%; Activity [35]: 14.43%; Activity (SCC-15 [36]): 30%; Activity [37]: 10.4%; IC50 [38]: > 100 µM
2 | O=C1CC(N2C(=O)/C(=C/C(Cl)=C/c3ccc([N+](=O)[O-])cc3)SC2=S)C(=O)N1c1ccc(Cl)cc1 (centres undefined) | > 100 | 135.01 | 23.81 | 34.08 | Tde | 44.91 | 12.9 | 29.03 | 34.64 | 31.6 | 30.4 | 55.58 | Non-Toxic | 14.8 | Dose-Dependent Effect | > 100 | Non-Toxic | 10.2 | 30.64 | 42.01 | IC50 (Colon carcinoma cell): 1 µM; Activity (SCC-15 [39]): 15.81%; Activity (SCC-15 [40]): 18.64%; Activity [41]: 26.46%; Activity (SCC-15 [42]): 2%; IC50 (Leukemic tumor cell line): 1 µM; IC50 (Glioblastoma cell line): 1 µM; Activity [31]: 32.59%; IC50 (Lung cancer cell line): 1 µM; Activity (SCC-15 [43]): 49.3%; Activity [44]: 17.79%; Activity [34]: 82.31%; IC50 (Breast carcinoma cell): 1 µM; Activity (SCC-15 [45]): inactive; Activity [35]: 46.82%; IC50 [46]: 1 µM; Activity (SCC-15 [47]): 13.13%; Activity [37]: 9.11%; IC50 [38]: > 100 µM
